pIC50: −log10 of the molar value.
Target: Cholinesterase (Homo sapiens, UniProt P06276)
Test: Inhibition of human […] BuChE using S-butyrylthiocholine iodide as substrate preincubated for 20 mins followed by substrate addition and measured every 30 secs for 1 hr by Ellman's method

Cholinesterase, sequence (P06276 whole entry): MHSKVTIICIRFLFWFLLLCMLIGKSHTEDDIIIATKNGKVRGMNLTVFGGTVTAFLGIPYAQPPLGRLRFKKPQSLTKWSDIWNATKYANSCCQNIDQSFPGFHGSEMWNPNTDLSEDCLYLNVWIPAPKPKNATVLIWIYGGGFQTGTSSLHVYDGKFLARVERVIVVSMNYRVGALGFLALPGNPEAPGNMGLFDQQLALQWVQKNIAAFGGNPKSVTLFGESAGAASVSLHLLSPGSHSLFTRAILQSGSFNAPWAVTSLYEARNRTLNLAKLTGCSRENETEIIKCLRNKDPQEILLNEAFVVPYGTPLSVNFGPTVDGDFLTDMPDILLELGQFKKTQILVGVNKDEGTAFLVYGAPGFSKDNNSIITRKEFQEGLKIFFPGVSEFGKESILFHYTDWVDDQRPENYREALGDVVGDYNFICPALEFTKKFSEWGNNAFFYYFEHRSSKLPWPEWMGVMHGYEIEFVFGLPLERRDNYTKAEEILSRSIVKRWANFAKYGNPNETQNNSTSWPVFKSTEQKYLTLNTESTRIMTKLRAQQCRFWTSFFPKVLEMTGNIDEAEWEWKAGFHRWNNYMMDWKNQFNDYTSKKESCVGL

Cc1cccc2c1C(=O)[C@@H]1[C@H]3CCC[N@@+]3([O-])CC[C@H]1O2 (racemic) and Cc1cccc2c1C(=O)[C@@H]1[C@H]3CCC[N@+]3([O-])CC[C@H]1O2 (racemic) cannot be ordered by pIC50: less than 4.30 for the first, less than 4.30 for the second.

Cc1cccc(O)c1C(=O)C[C@@H]1CC[C@@H]2[C@H]3C(=O)c4c(C)cccc4O[C@@H]3CCN12 (racemic) and Cc1cccc(O)c1C(=O)C[C@@H]1CC[C@@H]2[C@H]3C(=O)c4c(C)cccc4O[C@H]3CCN12 cannot be ordered by pIC50: less than 4.30 for the first, less than 4.30 for the second.

Cc1cccc(O)c1C(=O)CC1CCCN1CCCO (racemic) and Cc1cccc(O)c1C(=O)C[C@H]1CC[C@H]2[C@@H]3C(=O)c4c(C)cccc4O[C@@H]3CCN12 cannot be ordered by pIC50: less than 4.30 for the first, less than 4.30 for the second.

Compared with Cc1cccc2c1C(=O)[C@H]1[C@H](CCN3CCC[C@H]13)O2 (racemic) [ISOELAEOCARPINE], Cc1cccc2c1C(=O)[C@@H]1[C@H]3CCCN3CC[C@H]1O2 (racemic) is higher in pIC50: less than 4.30 for the first, 4.46 for the second.

Cc1cccc2c1C(=O)[C@@H]1[C@H](CCN3C(=O)CC[C@@H]13)O2 and Cc1cccc2c1C(=O)[C@@H]1[C@H]3CCC(=O)N3CC[C@H]1O2 cannot be ordered by pIC50: less than 4.30 for the first, less than 4.30 for the second.

First: Cc1cccc2c1C(=O)[C@H]1[C@@H](CC[N@@+]3([O-])CCC[C@@H]13)O2 (racemic)
Second: Cc1cccc2c1C(=O)[C@H]1[C@H](CCN3C(=O)CC[C@H]13)O2 (racemic)
The pIC50 of the first is higher: 4.54 for the first, less than 4.30 for the second. The first is the more potent here.

Going from Cc1cccc2c1C(=O)CC(CCCNCCCO)O2 (racemic) to Cc1cccc2c1C(=O)C1=C3CCCN3CCC1O2 (racemic), the pIC50 rises from less than 4.30 to 4.41. The second is the more potent here.
